# Results reported in PMC4874602 (ACS Infectious Diseases, 2016).
# Like-named read-outs stand apart in the source and are kept apart here.
# Assays:
# [1] = BALB/c; for Cmax / AUC168h / Tmax / t1/2: single 25 mg/kg oral dose of BDQ; for AUC8h: single 150 mg/kg oral dose of PZA
# [2] = test system: Mycobacterium tuberculosis; settings: cited from earlier work
# [3] = C3HeB/FeJ; for AUC8h: single 150 mg/kg oral dose of PZA
# [4] = cited from earlier work
# [5] = lung; single dose of 25 mg/kg BDQ; BALB/c and C3HeB/FeJ
# in vivo [6] = settings: C3HeB/FeJ, mouse, po, 150 mg/kg; for Cmax / half-life / Tmax: single 150 mg/kg oral dose of PZA; for half-life: t1/2, C3HeB/FeJ
# in vivo [7] = settings: BALB/c and C3HeB/FeJ, mouse, 150 mg/kg
# THP-1 cells = settings: 30 min exposure, 1 mM PZA, 0.4 mM POA
# M. tuberculosis Erdman [8] = assay type: in vivo, Mycobacterium tuberculosis; settings: BALB/c, P < 0.01
# M. tuberculosis Erdman [9] = assay type: in vivo, Mycobacterium tuberculosis; settings: C3HeB/FeJ, P < 0.01
# in vivo [10] = settings: BALB/c, mouse, po, 150 mg/kg; for Cmax / half-life / Tmax: single 150 mg/kg oral dose of PZA; for half-life: t1/2, BALB/c
# [11] = lesion (cellular non-necrotizing, type III)
# [12] = lesion (type I), single 25 mg/kg oral dose of BDQ
# [13] = plasma, single 25 mg/kg oral dose of BDQ
# [14] = uninvolved lung, single 25 mg/kg oral dose of BDQ
# [15] = whole lung, single 25 mg/kg oral dose of BDQ
# [16] = PZA 150 mg/kg, first 3 weeks of treatment
# [17] = PZA 300 mg/kg vs 150 mg/kg, first 3 weeks
smiles,measurement,setting,value
"CNCCC(O)(c1cccc2ccccc12)C(c1ccccc1)c1cc2cc(Br)ccc2nc1OC (stereo not shown) [M2, N-desmethyl-BDQ]",Cmax,[1]; [11],82.7 µg/g
same,AUC168h,[1]; lesion (type III),7619 µg·h/g
same,Tmax,[1]; lesion (type III),24 h
same,t1/2,[1]; lesion (type III),90.7 h
same,AUC168h,[1]; plasma,57.3 µg·h/mL
same,Cmax,[1]; plasma,0.76 µg/mL
same,Tmax,[1]; plasma,8 h
same,t1/2,"[1]; plasma, 72–168 h terminal",59.8 h
same,AUC168h,[1]; uninvolved lung,8825 µg·h/g
same,Cmax,[1]; uninvolved lung,111.8 µg/g
same,Tmax,[1]; uninvolved lung,24 h
same,t1/2,[1]; uninvolved lung,69.7 h
same,AUC168h,[1]; whole lung,7207 µg·h/g
same,Cmax,[1]; whole lung,69.5 µg/g
same,Tmax,[1]; whole lung,24 h
same,t1/2,[1]; whole lung,90.6 h
same,MIC relative to BDQ,[2],approximately five times higher than that of BDQ
same,concentration in dissected caseum of type I granulomas (LC/MS/MS),"[3]; 8 h following a single 25 mg/kg dose of BDQ, preliminary",587.5 ng/g
same,Cmax,"[3]; lesion (caseous necrotic granuloma, type I), single 25 mg/kg oral dose of BDQ",26.8 µg/g
same,AUC168h,[3]; [12],2848 µg·h/g
same,Tmax,[3]; [12],24 h
same,t1/2,[3]; [12],98.6 h
same,AUC168h,[3]; [13],69.3 µg·h/mL
same,Cmax,[3]; [13],0.70 µg/mL
same,Tmax,[3]; [13],24 h
same,plasma exposure (AUC168h) as printed in the discussion,[3]; [13],69.3 µg·h/g
same,t1/2,"[3]; plasma, single 25 mg/kg oral dose of BDQ, 72–168 h terminal",55.9 h
same,AUC168h,[3]; [14],4895 µg·h/g
same,Cmax,[3]; [14],46.9 µg/g
same,Tmax,[3]; [14],24 h
same,t1/2,[3]; [14],89.4 h
same,AUC168h,[3]; [15],5254 µg·h/g
same,Cmax,[3]; [15],45.4 µg/g
same,Tmax,[3]; [15],24 h
same,t1/2,[3]; [15],134.7 h
same,protein bound,[4],more than 99%
same,tmax by MALDI-MSI,[5],24 h
"NC(=O)c1cnccn1 [PZA, pyrazinamide]",AUC(0-t),in vivo [6],329 µg·h/mL
same,Kp,in vivo [6]; AUCLes/AUCplasma,1.07
same,Kp,in vivo [6]; AUCUL/AUCplasma,0.72
same,Kp,in vivo [6]; AUCWL/AUCplasma,0.93
same,Cmax,"in vivo [6]; lesion (caseous necrotic granuloma, type I)",94700 ng/g
same,Cmax,in vivo [6]; plasma,87.4 µg/mL
same,Cmax,in vivo [6]; uninvolved lung,66200 ng/g
same,Cmax,in vivo [6]; whole lung,76500 ng/g
same,half-life,in vivo [6]; lesion (type I),2.88 h
same,half-life,"in vivo [6]; plasma, 2.5–8 h terminal",2.6 h
same,half-life,in vivo [6]; uninvolved lung,3.01 h
same,half-life,in vivo [6]; whole lung,2.82 h
same,Tmax,in vivo [6]; lesion (type I),1 h
same,Tmax,in vivo [6]; plasma,0.75 h
same,Tmax,in vivo [6]; uninvolved lung,1 h
same,Tmax,in vivo [6]; whole lung,1 h
same,Tmax,in vivo [7],0.5 to 1 h
same,AUC8h,[1]; lesion (type III),459.4 µg·h/g
same,AUC8h,[1]; uninvolved lung,262.8 µg·h/g
same,AUC8h,[1]; whole lung,298.6 µg·h/g
same,accumulation within THP-1 cells,THP-1 cells,accumulated to a very low degree
same,MIC,"[2]; pH 7.0, standard laboratory culture conditions",> 1000 mg/mL
same,change in pulmonary CFU,M. tuberculosis Erdman [8]; [16],significant decrease in pulmonary CFU
same,change in pulmonary CFU,M. tuberculosis Erdman [8]; [17],larger decrease in CFU
same,change in pulmonary CFU,M. tuberculosis Erdman [9]; [16],significant decrease in pulmonary CFU
same,change in pulmonary CFU,M. tuberculosis Erdman [9]; [17],larger decrease in CFU
same,AUC(0-t),in vivo [10],346 µg·h/mL
same,Kp,in vivo [10]; AUCLes/AUCplasma,1.33
same,Kp,in vivo [10]; AUCUL/AUCplasma,0.76
same,Kp,in vivo [10]; AUCWL/AUCplasma,0.86
same,Cmax,in vivo [10]; [11],146000 ng/g
same,Cmax,in vivo [10]; plasma,161 µg/mL
same,Cmax,in vivo [10]; uninvolved lung,93600 ng/g
same,Cmax,in vivo [10]; whole lung,123000 ng/g
same,half-life,in vivo [10]; lesion (type III),0.96 h
same,half-life,"in vivo [10]; plasma, 2.5–8 h terminal",1.05 h
same,half-life,in vivo [10]; uninvolved lung,0.75 h
same,half-life,in vivo [10]; whole lung,1.02 h
same,Tmax,in vivo [10]; lesion (type III),0.5 h
same,Tmax,in vivo [10]; plasma,0.5 h
same,Tmax,in vivo [10]; uninvolved lung,0.5 h
same,Tmax,in vivo [10]; whole lung,0.5 h
same,AUC8h,[3]; lesion (type I),351.8 µg·h/g
same,AUC8h,[3]; uninvolved lung,237.9 µg·h/g
same,AUC8h,[3]; whole lung,306.3 µg·h/g
